Assay [1] deals with Th1 cytokine production to trophoblast. Conditions: in vitro, women with recurrent pregnancy loss; Choi et al., Human Reproduction 15/1 (2000) 46-59; cited from earlier work.
In assay [2] the test system is peripheral blood mononuclear cells (=PBMC). In words: Th1 and Th2 cytokine profiles produced by mitogen-stimulated PBMC (ELISA), ex vivo. The class given is cell-based, human. As for the experimental part: The effects of dydrogesterone on Th1 and Th2 cytokine profiles produced by mitogen-stimulated peripheral blood mononuclear cells (=PBMC) were determined. Several studies have pointed to a deviation of cytokine profiles in women when during pregnancy. Pregnancy is associated with a shift towards Th2 bias, evinced by changes in peripheral T cells, by cytokine production by peripheral lymphocytes and by cytokine changes at the maternal-fetal interface. Unexplained recurrent spontaneous abortion (URSA) seems to be associated with a stronger bias towards Th1 cytokines. Women who have earlier been gone through URSA may therefore be regarded as a pre-selected group of patients that will typically respond to an immunological stimulation by showing a Th1 dominated pattern of immune response. The pharmacological test was therefore performed with a suitable URSA group which comprised of women admitted with spontaneous abortion for evacuation, (i) who have had at least two previous unexplained miscarriages, (ii) who were currently undergoing at least a 3rd abortion and (iii) who had been fully investigated. The relationship between habitual abortion and cytokine production response in 54 women with normal pregnancy (and at least 3 previous normal pregnancies) and 23 women with a history of habitual abortion of unexplained aetiology (URSA group) has been investigated. Mitogen-induced stimulation of Peripheral Blood Mononuclear Cells (PBMC): Peripheral blood was obtained by venipuncture from the abortion group on the day of abortion. PBMC is separated by Ficoll-paque (Pharmacia Biotech, Sweden) density gradient centrifugation, suspended in RPMI medium (=“Roswell Park Memorial Institute”-medium; obtained from GIBCO/BRL, USA) containing 10% fetal calf serum, aliquoted into 96 well tissue culture plates at a density of 100.000 cells per well and then stimulated with the mitogen phytohemagglutinin (=PHA, Sigma Chemicals, USA) at a concentration of […] for a period of 96 hours, with autologous placental antigens or with trophoblast antigens. Progesterone, dydrogesterone (Duphaston®) and RU486 (=mifepristone) was added in different combinations as described below. Progesterone was tested at concentrations of […]. RU486 was tested at equivalent concentrations. Culture supernatants were harvested at 96 hours for determination of the levels of cytokines secreted by the PBMC into the supernatants. Cytokine levels were determined in the supernatants by enzyme-linked immunosorbent assay (=ELISA). Protocol of Experimental Samples: Each sample was tested in the following manner: • PBMC+mitogen • PBMC+mitogen+progesterone • PBMC+mitogen+progesterone+RU486 • PBMC+mitogen+dydrogesterone • PBMC+mitogen+dydrogesterone+RU486 • PBMC+mitogen+Carrier • PBMC+mitogen+Carrier+RU486 Determination of cytokine levels by ELISA: Th1 cytokines TNF-α and IFN-γ, and Th2 cytokines IL-4, IL-6 and IL-10 were evaluated in these samples by ELISA using kits that were obtained from Immunotech SA, France. These consisted of “sandwich ELISA”; briefly the first step leads to the capture of the relevant cytokine by monoclonal anti-cytokine antibodies bound to the wells of microtiter plates. In the second step, a second biotinylated monoclonal is added together with streptavidin-enzyme (peroxidase or alkaline phosphatase) conjugate. The biotinylated antibody binds to the solid phase antibody-antigen complex, and in turn, binds the conjugate. After incubation the wells are washed and the binding of the streptavidin-enzyme via biotin is followed by the addition of a chromogenic substrate. The intensity of the coloration produced is proportional to the concentration of the cytokine in the sample. Standard curves are plotted for each of the cytokines using reference recombinant cytokines and the results are read from these curves. The sensitivity of each of the assays is as follows: 5 pg/ml of TNF-α, 0.08 IU/ml of IFN-γ, 5 pg/ml of IL-4 and 5 pg/ml of IL-10. […]
(An ELISA detects its analyte on a solid surface through an enzyme-linked reagent.)

In the next assay the test system is pregnant mice. As to the kind of experiment: murine stress-induced abortion model. Type of assay: in vivo. From the text: The results of the pharmacological test method given above can also be confirmed in an in vivo test model involving pregnant mice. […] Pregnant mice were exposed to ultrasound on day 5 of gestation. This stress increased the abortion rate of these mice from around 12% to 44%. Treatment with dydrogesterone reduced the abortion in a dose-related manner to as low as 5%.

Setting [3] is: PHA-stimulated PBMC supernatant, ELISA, 96 hours.
Where [4] appears, read: women with spontaneous abortion and habitual abortion.

`CC(=O)[C@H]1CC[C@H]2[C@@H]3CCC4=CC(=O)CC[C@]4(C)[C@H]3CC[C@]12C` [progesterone]: the “embryotoxic Th1 cytokine production to trophoblast” value in assay [1] is given as “inhibits”.
With `CC(=O)[C@H]1CC[C@H]2[C@@H]3C=CC4=CC(=O)CC[C@@]4(C)[C@@H]3CC[C@]12C` [dydrogesterone], in assay [2] (setting [3]), the IFN-γ result is recorded as “reduction of IFN-γ”, the “Interleukin 4” value was “marked increase” and the “Interleukin 6” value is “marked increase”. Also, the Th1/Th2 bias entry in assay [2] (PHA-stimulated PBMC, 96 hours, women with spontaneous and habitual abortion) is recorded as “shift from a Th1 towards a Th2 bias”. In addition, in assay [2] (setting [4]), the activity of lymphocytes entry was “reduced the activity of lymphocytes” and the “release of progesterone induced blocking factor (PIBF)” value is reported as “increased release”. Besides, in the assay with pregnant mice (murine stress-induced abortion model), the Th1/Th2-cytokine production result is recorded as “shift from Th1 to Th2-cytokine production”. Further, the abortion rate with pregnant mice (pregnant mice exposed to ultrasound on day 5 of gestation, dose-related, stress raised rate from around 12% to 44%) was ≥ 5%. Also, the “level of IL-4” value with pregnant mice (pregnant mice exposed to ultrasound stress on day 5 of gestation) is on record as “increased level”.
